# Test results reported in patent US20030215888A1, “Androgen receptor overexpressing skeletal myoblasts” (Pfizer Inc., priority 2002, published 2003).
# Like-named read-outs stand apart in the source and are kept apart here.
# Tests used:
# C2hAR57 cells [1] = settings: C2hAR57, 100 nM DHT
# Protocol: (§1) Each cell sample was pelleted by low-speed centrifugation and resuspended in 0.5 ml phosphate buffered saline containing 100 micrograms/ml ribonuclease A and 20 microgram/ml propidium iodide for 30 minutes at room temperature.
# C2C12 cells [2] = settings: C2C12, 100 nM DHT
# Protocol: as §1
# C2hAR57 cells [3] = test: [3H]-thymidine uptake assay, C2hAR57 cells; format: cell-based, mouse; settings: 48 hours exposure
# Protocol: After 48 hours exposure to the test agents, medium containing 0.1 μCi [^3H]-thymidine (82 Ci/mmol, Amersham, Buckinghamshire, UK) per well was added and incubation was continued for two additional hours at 37° C. The assay was terminated by aspirating the culture medium and washing with ice-cold phosphate buffered saline followed by 5% trichloroacetic acid. The cells where then lysed by applying 0.3 N NaOH (75 μl per well) followed by 0.3 N HCl (75 μl per well) to neutralize the NaOH. The radioactivity in 50-μl aliquots was determined by liquid scintillation counting in 96-well plates (Packard Instrument Corporation) using a TopCount™ Scintillation Counter (Packard Instrument Corporation).
# C2C12 cells [4] = settings: C2C12, addition of DHT, fusion medium
# From the text: Fusion medium was changed daily. C2hAR57 cells at low density in high mitogen growth medium appeared as small, adherent mononuclear cells.
# C2hAR57 cells [5] = settings: for protein content / protein content, percentage difference from vehicle: 3 days in fusion medium
# Protocol: (§2) Procedure A—Three days in fusion medium. C2hAR57 cells were plated in 12-well tissue culture plates (Costar, Corning, N.Y.) at 4×10^4 cells/well in high mitogen growth medium.
# C2C12 cells [6] = settings: for protein content / protein content, percentage difference from vehicle: 3 days in fusion medium
# Protocol: as §2
# [7] = system: IGF-II transcripts in C2C12 cells; settings: C2C12, 100 nM DHT
# Protocol: (§3) Day zero samples were harvested just prior to the induction of differentiation. […] Total RNA was isolated using Trizol®, and RNA concentration was determined by UV spectroscopy. Samples containing 20 micrograms of total RNA were separated by electrophoresis on formaldehyde-containing agarose gels, transferred to Duralon-UV™ nylon membrane (Stratagene, La Jolla, Calif.) by capillary blotting in 5×SSPE and probed sequentially for IGFBP4, IGF-II and 18S ribosomal RNA. DNA fragments used for probes were generated by reverse transcription polymerase chain reaction using rat skeletal muscle poly A+ RNA as template. […] Probes were denatured by boiling and used at a concentration of 1-2×10^6 dpm/ml hybridization solution (50% formamide, 6×SSC, 1% SDS, 15×Denhardt's solution, 0.1 mg/ml sheared salmon sperm DNA). Following hybridization at 42° C. for at least 24 hours, the membranes were washed to moderate stringency with 0.3×SSC/0.1% SDS at 55° C. […] Between successive probings, the membrane was stripped by incubation at 70° C. for one to three hours in a solution consisting of 5 mM Tris HCl, pH 8, 0.2 mM Na2EDTA, 0.05% sodium pyrophosphate and 0.1×Denhardt's solution. The imaging plate was exposed for 42 hours and 90 minutes to the IGFBP4 and IGF-II hybridizations, respectively. The 18S signal was used to normalize the hybridization signals from each of the other probes.
# [8] = system: IGF-II transcripts in C2hAR57 cells; settings: C2hAR57, 100 nM DHT
# Protocol: as §3
# [9] = system: IGFBP4 transcripts in C2C12 cells; settings: C2C12, 100 nM DHT
# Protocol: as §3
# [10] = system: IGFBP4 transcripts in C2hAR57 cells; settings: C2hAR57, 100 nM DHT
# Protocol: as §3
# C2hAR57 cells [11] = settings: C2hAR57, 100 nM DHT; remark: listed apart in the source
# Protocol: (§4) All cultures were approximately 80% confluent at the time of mitogen withdrawal. After 24 hour in fusion medium, the medium containing nonadherent cells was transferred to centrifuge tubes. The dishes were then rinsed with phosphate buffered saline and adherent cells were collected by trypsinization. Cell pellets were recovered by centrifugation and lysed in 50 mM Tris HCl, pH 8, 100 mM Na2EDTA, 0.5% sodium dodecylsulfate. […] DNA yields from pools of five dishes were determined by UV spectroscopy at 260 nm. Aliquots corresponding to 10 μg DNA were analyzed by electrophoresis on a 1% agarose gel in TBE buffer and visualized by ethidium bromide fluorescence with UV transillumination.
# C2C12 cells [12] = settings: C2C12, 100 nM DHT, 24 hours in fusion medium
# Protocol: as §4
structure (smiles),measurement,setting,value
"C[C@]12CCC(=O)C[C@@H]1CC[C@@H]1[C@@H]2CC[C@]2(C)[C@@H](O)CC[C@@H]12 [DHT, dihydrotestosterone]",Percentage of cells in G2-M,C2hAR57 cells [1]; 24 h,14.3 ± 0.4 %
same,Percentage of cells in GO-G1,C2hAR57 cells [1]; 24 h,54.5 ± 0.7 %
same,Percentage of cells in S,C2hAR57 cells [1]; 24 h,31.2 ± 0.6 %
same,Percentage of cells in G2-M,C2hAR57 cells [1]; 48 h,15.1 ± 1.1 %
same,Percentage of cells in GO-G1,C2hAR57 cells [1]; 48 h,51.2 ± 2.8 %
same,Percentage of cells in S,C2hAR57 cells [1]; 48 h,33.7 ± 3.2 %
same,effect on fraction of cells at each stage of the cell cycle,C2C12 cells [2],unaffected
same,Percentage of cells in G2-M,C2C12 cells [2]; 24 h,15.6 ± 1.2%
same,Percentage of cells in GO-G1,C2C12 cells [2]; 24 h,40.3 ± 0.8%
same,Percentage of cells in S,C2C12 cells [2]; 24 h,45.3 ± 1.1%
same,Percentage of cells in G2-M,C2C12 cells [2]; 48 h,15.8 ± 0.7%
same,Percentage of cells in GO-G1,C2C12 cells [2]; 48 h,38.0 ± 0.6%
same,Percentage of cells in S,C2C12 cells [2]; 48 h,46.2 ± 0.7%
same,effect on [3H]-thymidine uptake,C2hAR57 cells [3],dose-dependent inhibitory effects
same,rate and extent of myotube formation,C2C12 cells [4],neither the rate nor the extent of myotube formation in cultures of C2C12 was visibly affected
same,protein content,"C2hAR57 cells [5]; C2hAR57, 0.001 nM DHT",123 ± 6 micrograms/well
same,"protein content, percentage difference from vehicle","C2hAR57 cells [5]; C2hAR57, 0.001 nM DHT",−1%
same,protein content,"C2hAR57 cells [5]; C2hAR57, 0.01 nM DHT",127 ± 11 micrograms/well
same,"protein content, percentage difference from vehicle","C2hAR57 cells [5]; C2hAR57, 0.01 nM DHT",+3%
same,protein content,"C2hAR57 cells [5]; C2hAR57, 0.1 nM DHT",152 ± 2 micrograms/well
same,"protein content, percentage difference from vehicle","C2hAR57 cells [5]; C2hAR57, 0.1 nM DHT",+23%
same,protein content,"C2hAR57 cells [5]; C2hAR57, 1 nM DHT",188 ± 4 micrograms/well
same,"protein content, percentage difference from vehicle","C2hAR57 cells [5]; C2hAR57, 1 nM DHT",+52%
same,protein content,"C2hAR57 cells [5]; C2hAR57, 10 nM DHT",199 ± 10 micrograms/well
same,"protein content, percentage difference from vehicle","C2hAR57 cells [5]; C2hAR57, 10 nM DHT",+61%
same,protein content,"C2hAR57 cells [5]; C2hAR57, 100 nM DHT",200 ± 4 micrograms/well
same,"protein content, percentage difference from vehicle","C2hAR57 cells [5]; C2hAR57, 100 nM DHT",+62%
same,protein content,"C2hAR57 cells [5]; C2hAR57, 1000 nM DHT",212 ± 3 micrograms/well
same,"protein content, percentage difference from vehicle","C2hAR57 cells [5]; C2hAR57, 1000 nM DHT",+71%
same,dose-related increase in total protein content,"C2hAR57 cells [5]; differentiating C2hAR57 cultures, DHT 10^-12-10^-6 M, Procedure A",up to 71%
same,protein content,"C2C12 cells [6]; C2C12, 0.001 nM DHT",245 ± 5 micrograms/well
same,"protein content, percentage difference from vehicle","C2C12 cells [6]; C2C12, 0.001 nM DHT",+3%
same,protein content,"C2C12 cells [6]; C2C12, 0.01 nM DHT",228 ± 3 micrograms/well
same,"protein content, percentage difference from vehicle","C2C12 cells [6]; C2C12, 0.01 nM DHT",−4%
same,protein content,"C2C12 cells [6]; C2C12, 0.1 nM DHT",246 ± 4 micrograms/well
same,"protein content, percentage difference from vehicle","C2C12 cells [6]; C2C12, 0.1 nM DHT",+3%
same,protein content,"C2C12 cells [6]; C2C12, 1 nM DHT",256 ± 9 micrograms/well
same,"protein content, percentage difference from vehicle","C2C12 cells [6]; C2C12, 1 nM DHT",+7%
same,protein content,"C2C12 cells [6]; C2C12, 10 nM DHT",243 ± 6 micrograms/well
same,"protein content, percentage difference from vehicle","C2C12 cells [6]; C2C12, 10 nM DHT",+2%
same,protein content,"C2C12 cells [6]; C2C12, 100 nM DHT",243 ± 6 micrograms/well
same,"protein content, percentage difference from vehicle","C2C12 cells [6]; C2C12, 100 nM DHT",+2%
same,protein content,"C2C12 cells [6]; C2C12, 1000 nM DHT",278 ± 2 micrograms/well
same,"protein content, percentage difference from vehicle","C2C12 cells [6]; C2C12, 1000 nM DHT",+17%
same,change in total protein content,"C2C12 cells [6]; C2C12 cultures, DHT 10^-12-10^-6 M, Procedure A",no consistent change
same,increase of IGF-II transcripts,[7]; 0 days in fusion medium,0.8 ×
same,increase of IGF-II transcripts,[7]; 1 day in fusion medium,1.5 ×
same,increase of IGF-II transcripts,[7]; 2 days in fusion medium,1.0 ×
same,increase of IGF-II transcripts,[8]; 0 days in fusion medium,10.2 ×
same,increase of IGF-II transcripts,[8]; 1 day in fusion medium,3.6 ×
same,increase of IGF-II transcripts,[8]; 2 days in fusion medium,2 ×
same,magnitude of IGFBP4 suppression,[9]; 0 days in fusion medium,20%
same,magnitude of IGFBP4 suppression,[9]; 1 day in fusion medium,51%
same,magnitude of IGFBP4 suppression,[9]; 2 days in fusion medium,44%
same,magnitude of IGFBP4 suppression,[10]; 0 days in fusion medium,75%
same,magnitude of IGFBP4 suppression,[10]; 1 day in fusion medium,86%
same,magnitude of IGFBP4 suppression,[10]; 2 days in fusion medium,70%
same,reduction of the incidence of apoptotic cells,C2hAR57 cells [11]; 24 hour period following mitogen withdrawal,approximately 75%
same,"DNA, adherent cells",C2hAR57 cells [11]; 24 hours in fusion medium,528 μg/dish
same,"DNA, nonadherent cells",C2hAR57 cells [11]; 24 hours in fusion medium,2.6 μg/dish
same,"DNA, nonadherent cells (% total)",C2hAR57 cells [11]; 24 hours in fusion medium,0.5%
same,"DNA, adherent cells",C2C12 cells [12],504 μg/dish
same,"DNA, nonadherent cells (% total)",C2C12 cells [12],2.9%
same,effect on the fraction of nonadherent cells,C2C12 cells [12],did not appreciably alter
